This is an account of results in patent US9497973B2, “Elasmobranch-repelling compounds, methods of use and devices” (priority 2005, dated 2016).

Where a name gives a salt, the structure may show the parent alone.

The conditions of series [1]: room temperature, heat; cited from earlier work.
Series [2] relates to at least four species of sharks. The following applies: cited from earlier work.
Series [3] deals with young Lemon Sharks (Negaprion brevirostris). The following applies: in vivo; cited from earlier work.
Series [4] concerns blue sharks and great white sharks. The following applies: squirted into the mouth; cited from earlier work.
The test system of series [5] is sharks. The conditions noted are these: cited from earlier work.
For series [6], the system named is sharks. The conditions noted are these: in vivo.
Series [7] concerns several species of sharks. The conditions noted are these: shark pens at Bimini, Bahamas; cited from earlier work.
Series [8] has as its system tiger sharks and other fish. The conditions noted are these: in vivo; cited from earlier work.

As for pardaxin, in series [1], the storage stability entry is “not stable for room temperature storage, and was heat-sensitive”. Further, the “effectiveness relative to the fresh secretion” value in series [2] (freeze-dried form) is given as 30%. The “time for which sharks were repelled” value in series [2] (laboratory and open sea, at least four species) was not below 10 h.

Take `CCCCCCCCCCCCOS(=O)(=O)[O-].[Na+]` [SLS]: the “repelling captive Lemon Sharks, compared with pardaxin” value in series [3] was “even more effective than pardaxin”. Besides, the “repellency against blue sharks and great white sharks” value in series [4] was “effective repellent”. Also, the “effectiveness in surrounding-cloud-mode dispersions” value in the series with sharks [5] (in vivo) is given as “not effective”.

On to copper acetate, for which the “effectiveness as a shark repellent” value with sharks [6] is given as “ineffective”. The “repelling or inhibiting feeding activities” value in series [7] is reported as “fails to repel or inhibit the feeding activities”. Besides, in series [8], the “efficacy against tiger sharks and other fish” value is listed as “inefficacy”.

On to `CCCCCCCCCCCCOS(=O)(=O)[O-].[Li+]` [LLS], for which the “repelling captive Lemon Sharks, compared with pardaxin” value in series [3] is listed as “even more effective than pardaxin”.

With `CCCCCCCCCCCCOS(=O)(=O)O` [dodecyl sulfate], the “meeting the Navy's potency requirement for a nondirectional surrounding-cloud type repellent” value in the series on sharks [5] (requirement 100 parts per billion (0.1 ppm or 100 micrograms/Liter)) was “did not meet”.
